Source: US20040248867A1, “Novel anti-inflammatory 17α-heterocyclic-esters of 17βcarbothioate androstane derivatives” (priority 2001, published 2004)

Test system: progesterone receptor
Experiment: Screen for progesterone receptor activity (T47D alkaline phosphatase); selectivity versus glucocorticoid receptor
Assay type: cell-based, human
Conditions: further experiments (additional data); ED50 at progesterone receptor divided by ED50 at glucocorticoid receptor
Procedure: The human breast cancer cell line T47D has been reported to upregulate an endogenous alkaline phosphatase in response to progestins (Di Lorenzo et al., Cancer Research (1991) 51, 4470-4475. T47D cells were seeded into 96 well plates at a density of 1×10^5 cells per well and grown overnight at 37° C. Steroids were dissolved in DMSO, added to the cells (final DMSO concentration 0.7%), and incubated for 24 hours at 37° C. The cells were then washed with PBS and lysed with RIPA buffer (1% IGEPAL, 0.5% Na deoxycholate, 0.1% SDS in phosphate buffered saline). Alkaline phosphatase activity was measured spectrophotometrically (405 nm) using p-nitrophenylphosphate (1.5 mg/ml) as a substrate dissolved in 1M diethanolamine, 0.28M NaCl, 0.5 mM MgCl2. Dose response curves were constructed from which EC50 values were estimated.
Compounds were tested for progesterone activity in accordance with the above screen and the selectivity was determined by dividing the ED50 at the progesterone receptor by the ED50 at the glucocorticoid receptor.

First: CC1CC2C3CC(F)C4=CC(=O)C=CC4(C)C3(F)C(O)CC2(C)C1(OC(=O)C1CCCO1)C(=O)SCF (stereo not drawn) [Example 2, 6α,9α-Difluoro-11β-hydroxy-16α-methyl-3-oxo-17α-(tetrahydrofuran-2R-ylcarbonyl)oxy-androsta-1,4-diene-17β-carbothioic acid S-fluoromethyl ester]
Second: CC1CC2C3CC(F)C4=CC(=O)C=CC4(C)C3(F)C(O)CC2(C)C1(OC(=O)C1CSC1)C(=O)SCF (stereo not drawn) [Example 6, 6α,9α-Difluoro-11β-hydroxy-16α-methyl-3-oxo-17α-(thietan-3-ylcarbonyl)oxy-androsta-1,4-diene-17β-carbothioic acid S-fluoromethyl ester]
The Selectivity of the first is higher: 1099 for the first, 500 for the second.

First: CC1CC2C3CC(F)C4=CC(=O)C=CC4(C)C3(F)C(O)CC2(C)C1(OC(=O)C1SCCS1)C(=O)SCF (stereo not drawn) [Example 4, 6α,9α-Difluoro-17α-(1,3-dithiolan-2-ylcarbonyl)oxy-11β-hydroxy-16α-methyl-3-oxo-androsta-1,4-diene-17β-carbothioic acid S-fluoromethyl ester]
Second: CCC(=O)O[C@]1(C(=O)SCF)[C@H](C)C[C@H]2[C@@H]3C[C@H](F)C4=CC(=O)C=C[C@]4(C)[C@@]3(F)[C@@H](O)C[C@@]21C [Fluticasone propionate, 6α,9α-Difluoro-17α-(1-oxopropoxy)-11β-hydroxy-16α-methyl-3-oxo-androsta-1,4-diene-17β-carbothioic acid S-fluoromethyl ester, reference compound]
The Selectivity of the first is higher: 1192 for the first, 82 for the second.

Compared with `CC1CC2C3CC(F)C4=CC(=O)C=CC4(C)C3(F)C(O)CC2(C)C1(OC(=O)C1(C)CCCO1)C(=O)SCF` (stereo not drawn) [Example 8A, 6α,9α-Difluoro-11β-hydroxy-16α-methyl-3-oxo-17-(2-methyl-tetrahydrofuran-2-ylcarbonyl)oxy-androsta-1,4-diene-17β-carbothioic acid S-fluoromethyl ester], `CC1CC2C3CC(F)C4=CC(=O)C=CC4(C)C3(F)C(O)CC2(C)C1(OC(=O)C1(C)OCCO1)C(=O)SCF` (stereo not drawn) [Example 11, 6α,9α-Difluoro-11β-hydroxy-16α-methyl-17α-(2-methyl-1,3-dioxolan-2-ylcarbonyl)oxy-3-oxo-androsta-1,4-diene-17β-carbothioic acid S-fluoromethyl ester] is lower in Selectivity: 49425 for the first, 1620 for the second.

Compared with `CC1CC2C3CC(F)C4=CC(=O)C=CC4(C)C3(F)C(O)CC2(C)C1(OC(=O)C1(C)CCCO1)C(=O)SCF` (stereo not drawn) [Example 8B, 6α,9α-Difluoro-11β-hydroxy-16α-methyl-3-oxo-17-(2-methyl-tetrahydrofuran-2-ylcarbonyl)oxy-androsta-1,4-diene-17β-carbothioic acid S-fluoromethyl ester], `CC1CC2C3CC(F)C4=CC(=O)C=CC4(C)C3(F)C(O)CC2(C)C1(OC(=O)C1(C)CCCS1)C(=O)SCF` (stereo not drawn) [Example 13A, 6α,9α-Difluoro-11β-hydroxy-16α-methyl-3-oxo-17α-(2-methyl-tetrahydrothiophen-2-ylcarbonyl)oxy-androsta-1,4-diene-17β-carbothioic acid S-fluoromethyl ester] is lower in Selectivity: 63855 for the first, 2650 for the second.

With `CC1CC2C3CC(F)C4=CC(=O)C=CC4(C)C3(F)C(O)CC2(C)C1(OC(=O)C1(C)CCCS1)C(=O)SCF` (stereo not drawn) [Example 13B, 6α,9α-Difluoro-11β-hydroxy-16α-methyl-3-oxo-17α-(2-methyl-tetrahydrothiophen-2-ylcarbonyl)oxy-androsta-1,4-diene-17β-carbothioic acid S-fluoromethyl ester] the Selectivity was 1955.
